From US20130172345A1, “1-ACYL-4-(PHENOXY, BENZYLOXY, OR PHENYLAMINO)-1,2,3,4-TETRAHYDROQUINOLINE DERIVATIVES” (KOWA COMPANY, LTD., priority 2007, published 2013) come the findings set out here.

Structures are written as SMILES. Structures can show the parent of a compound that is named as a salt.

The subject of assay [1] is HepG2 cells originating from human liver cancer. The assay is described as follows: EPO production in HepG2 cells (EPO ELISA of culture supernatant, 4% oxygen, 48 hrs). Type of assay: cell-based. The conditions noted are these: test compound 3 μM, oxygen 4%, non-stimulated state = 100%, read-out: EPO production amount, % of control (3 μM). As to the method: HepG2 cells originating from human liver cancer were seeded at a density of 1×10^4 cells per well on a 24-well plate by using minimum essential medium (MEM, manufactured by Sigma) comprising 10% bovine fetal serum. Next day, the medium was exchanged with Dulbecco's modified eagle medium (DMEM, manufactured by Sigma) comprising 10% bovine fetal serum lacking phenol red. Then, the test compound dissolved in DMSO was added thereto to obtain the final concentration of 3 μM or 10 μM while having 400 μl of the medium per well. The cells were incubated for 48 hrs in a CO2 incubator which had been adjusted to have oxygen concentration of 4%, followed by collecting the culture supernatant. The EPO concentration in the culture supernatant was immediately measured by using EPO ELISA kit (manufactured by Roche Diagnostics K.K.). Specific procedures were carried out according to the manufacturer's protocol included in the kit.
When EPO production amount in non-stimulated state, i.e., without addition of any compound, was 100%, the EPO production amount induced by each compound was calculated (% of control).

In assay [2] the test system is K562 cells, human proerythroblast cells. The assay can be described thus: Hemoglobin production in K562 cells (fluorescence of the porphyrin ring). Type of assay: cell-based. The conditions noted are these: 144 h, test compound 6 μM, 3+3 days, non-stimulated state = 100%, read-out: production amount of hemoglobin, % of control (6 μM). As to the method: K562 cells (obtained from ATCC), which are human proerythroblast cells, were seeded at a density of 1×10^5 cells/1 mL on a 24-well plate by using complete medium (RPMI-1640 medium comprising 10% bovine fetal serum). After adding the test compound having 1000× concentration (1 μL), the cells were incubated for three days in a CO2 incubator (37° C., 5% CO2). After exchanging the medium, the cells were further incubated for three days. Then, the cells were collected and counted. After adjusting them to have 3×10^5 cells, the amount of hemoglobin produced in the cells was determined by measuring fluorescence of the porphyrin ring. Specifically, the cells which had been collected by centrifugation were suspended in 2 M oxalic acid solution (500 μL) and boiled for 30 minutes under heating. After cooling the cells, the fluorescence intensity was measured by Fluorescence micro plate reader (Spectra MAX GeminiEM, manufactured by Molecular Devices Corporation) ([…]). When hemoglobin amount in non-stimulated state, i.e., without addition of any compound, was 100%, the production amount of hemoglobin induced by each compound was calculated (% of control).

As for `CC(=O)N1c2c(F)cccc2[C@H](Nc2ccccc2F)C[C@@H]1C` (relative stereo) [Compound 4, cis-1-acetyl-8-fluoro-4-[(2-fluorophenyl)amino]-2-methyl-1,2,3,4-tetrahydroquinoline], in assay [1], the activity at 3 µM was 163%. Further, in assay [2], the activity at 6 µM is 92%. On to `C[C@H]1C[C@@H](Nc2ccc(F)cc2)c2cc(F)ccc2N1C(=O)C1CCCCC1` (relative stereo) [Compound 6, cis-1-cyclohexanecarbonyl-6-fluoro-4-[(4-fluorophenyl)amino]-2-methyl-1,2,3,4-tetrahydroquinoline], for which the activity at 3 µM in assay [1] was found to be 225%. Besides, in assay [2], the activity at 6 µM was found to be 326%. `CC(=O)N1c2cc(C#N)ccc2[C@H](Nc2ccccc2)C[C@@H]1C` (relative stereo) [Compound 7, cis-1-acetyl-7-cyano-2-methyl-4-phenylamino-1,2,3,4-tetrahydroquinoline]: in assay [1], the activity at 3 µM turned out to be 261%. In addition, the activity at 6 µM in assay [2] was found to be 260%.

Turning to `CC(=O)N1c2ccccc2[C@H](Nc2ccccc2F)C[C@@H]1C` (relative stereo) [Compound 22, cis-1-acetyl-4-[(2-fluorophenyl)amino]-2-methyl-1,2,3,4-tetrahydroquinoline], in assay [1], the activity at 3 µM came out at 150%. For the same molecule, the activity at 6 µM in assay [2] is 383%. For `CC(=O)N1c2cc(Br)ccc2[C@H](Nc2ccccc2)C[C@@H]1C` (relative stereo) [Compound 23, cis-1-acetyl-7-bromo-2-methyl-4-phenylamino-1,2,3,4-tetrahydroquinoline], in assay [1], the activity at 3 µM amounted to 135%. Also, the activity at 6 µM in assay [2] was found to be 544%.

`CC(=O)N1c2ccccc2[C@H](Oc2ccccc2)C[C@@H]1C` (relative stereo) [Compound 26, cis-1-acetyl-2-methyl-4-phenoxy-1,2,3,4-tetrahydroquinoline]: the activity at 3 µM in assay [1] is 214%. The activity at 6 µM in assay [2] was 188%.

In the case of `CC(=O)N1c2ccccc2[C@H](Oc2ccc(F)cc2)C[C@@H]1C` (relative stereo) [Compound 27, cis-1-acetyl-4-(4-fluorophenoxy)-2-methyl-1,2,3,4-tetrahydroquinoline], the activity at 3 µM in assay [1] came to 292%. The activity at 6 µM in assay [2] came to 281%. Take `CC(=O)N1c2ccccc2[C@H](Oc2cccc(F)c2)C[C@@H]1C` (relative stereo) [Compound 28, cis-1-acetyl-4-(3-fluorophenoxy)-2-methyl-1,2,3,4-tetrahydroquinoline]: in assay [1], the activity at 3 µM is 167%. The activity at 6 µM in assay [2] came to 216%. Regarding `CC(=O)N1c2ccccc2[C@H](Oc2ccccc2F)C[C@@H]1C` (relative stereo) [Compound 29, cis-1-acetyl-4-(2-fluorophenoxy)-2-methyl-1,2,3,4-tetrahydroquinoline], the activity at 3 µM in assay [1] stood at 305%. Further, the activity at 6 µM in assay [2] came to 201%.

`CC(=O)N1c2ccccc2[C@H](Oc2ccc(F)cc2F)C[C@@H]1C` (relative stereo) [Compound 30, cis-1-acetyl-4-(2,4-difluorophenoxy)-2-methyl-1,2,3,4-tetrahydroquinoline]: in assay [1], the activity at 3 µM came out at 339%. Besides, in assay [2], the activity at 6 µM was found to be 136%. For `CC(=O)N1c2ccccc2[C@H](Oc2ccc(F)c(F)c2)C[C@@H]1C` (relative stereo) [Compound 31, cis-1-acetyl-4-(3,4-difluorophenoxy)-2-methyl-1,2,3,4-tetrahydroquinoline] the same measures were 302% and 156%.

For the molecule `CC(=O)N1c2ccc(C)cc2C(Nc2ccc(C)cc2)CC1C` (centres unmarked) [Compound 2, 1-acetyl-2,6-dimethyl-4-[(4-methylphenyl)amino]-1,2,3,4-tetrahydroquinoline], in assay [1], the activity at 3 µM worked out at 167%. Same read-out and setting: then `CC(=O)N1c2ccccc2C(Nc2ccc(O)cc2)CC1C` (stereo not drawn) [Compound 24, cis-1-acetyl-4-[(4-hydroxyphenyl)amino]-2-methyl-1,2,3,4-tetrahydroquinoline.hydrochloride], with 117%; and `CC(=O)N1c2ccccc2C(Nc2ccc(-c3ccccc3)cc2)CC1C` (centres unmarked) [Compound 25, 1-acetyl-2-methyl-4-[(1,1′-biphenyl-4-yl)amino]-1,2,3,4-tetrahydroquinoline], with 242%; and `CC(=O)N1c2ccc(C(N)=O)cc2C(Nc2ccc(Cl)cc2)CC1C` (centres unmarked) [Compound 43, 1-acetyl-4-[(4-chlorophenyl)amino]-2-methyl-1,2,3,4-tetrahydroquinoline-6-carboxamide], with 452%. On the same count and under the same terms, the value for `CC(=O)N1c2ccccc2C(Nc2ccccc2C)CC1C` (centres unmarked) [Compound 49, 1-acetyl-4-[(2-methylphenyl)amino]-2-methyl-1,2,3,4-tetrahydroquinoline] was 271%. Turning to `CC(=O)N1c2ccccc2C(Nc2cccc(C)c2)CC1C` (centres unmarked) [Compound 50, 1-acety1-4-[(3-methylphenyl)amino]-2-methyl-1,2,3,4-tetrahydroquinoline], the activity at 3 µM in assay [1] stood at 289%.

Regarding `CC(=O)N1c2ccccc2C(Nc2ccc(C)cc2)CC1C` (centres unmarked) [Compound 51, 1-acety1-4-[(4-methylphenyl)amino]-2-methyl-1,2,3,4-tetrahydroquinoline], in assay [1], the activity at 3 µM worked out at 239%.

As to `CC(=O)N1c2ccccc2C(Nc2ccc(C(F)(F)F)cc2)CC1C` (centres unmarked) [Compound 52, 1-acetyl-2-methyl-4-[(4-trifluoromethylphenyl)amino]-1,2,3,4-tetrahydroquinoline], in assay [1], the activity at 3 µM is 314%. The same measure, in the same setting: then `CC(=O)N1c2ccccc2C(Oc2ccc(N3CCOCC3)cc2)CC1C` (centres unmarked) [Compound 55, 1-acetyl-4-(4-morpholinophenoxy)-2-methyl-1,2,3,4-tetrahydroquinoline], with 134%. For `CCOC(=O)Cc1ccc(NC2CC(C)N(C(C)=O)c3ccccc32)cc1` (centres unmarked) [Compound 70, 1-acetyl-4-[(4-ethoxycarbonylmethylphenyl)amino]-2-methyl-1,2,3,4-tetrahydroquinoline], in assay [1], the activity at 3 µM was determined as 165%. On the same count and under the same terms, then `CC(=O)N1c2ccc(N3CCN(S(C)(=O)=O)CC3)cc2C(Nc2ccc(Cl)cc2)CC1C` (centres unmarked) [Compound 80, 1-acetyl-6-[(4-methanesulfonyl)piperazino]-4-[(4-chlorophenyl)amino]-2-methyl-1,2,3,4-tetrahydroquinoline], with 219%; and `CC(=O)N1c2ccc(N3CCN(C(C)C)CC3)cc2C(Nc2ccc(Cl)cc2)CC1C` (centres unmarked) [Compound 81, 1-acetyl-4-[(4-chlorophenyl)amino]-6-[(4-isopropyl)piperazino]-2-methyl-1,2,3,4-tetrahydroquinoline], with 234%. Take `COC(=O)c1cc(NC2CC(C)N(C(C)=O)c3ccccc32)ccc1O` (centres unmarked) [Compound 108, 1-acetyl-4-[(4-hydroxy-3-methoxycarbonylphenyl)amino]-2-methyl-1,2,3,4-tetrahydroquinoline.hydrochloride]: the activity at 6 µM in assay [2] amounted to 399%. Same read-out and setting: the value for `CC(=O)N1c2ccc(N3CC(C)OC(C)C3)cc2C(Nc2ccc(NS(C)(=O)=O)cc2)CC1C` (stereo not drawn) [Compound 110, 1-acetyl-6-[cis-2,6-dimethylmorpholin-4-yl]-4-[(4-methanesulfonylaminophenyl)amino]-2-methyl-1,2,3,4-tetrahydroquinoline.2 hydrochloride] was 211%; that for `CC(=O)N1c2ccc(C(=O)NN)cc2C(Nc2ccc(Cl)cc2)CC1C` (centres unmarked) [Compound 115, 1-acetyl-4-[(4-chlorophenyl)amino]-2-methyl-1,2,3,4-tetrahydroquinoline-6-carbohydrazide] was 163%. As to `CC(=O)N1c2ccc(C#N)cc2C(Nc2ccc(Cl)cc2)CC1C` (centres unmarked) [Compound 117, 1-acetyl-4-[(4-chlorophenyl)amino]-6-cyano-2-methyl-1,2,3,4-tetrahydroquinoline], the activity at 3 µM in assay [1] came to 204%. As for `CONC(=O)c1ccc2c(c1)C(Nc1ccc(Cl)cc1)CC(C)N2C(C)=O` (centres unmarked) [Compound 118, 1-acetyl-4-[(4-chlorophenyl)amino]-N-methoxy-2-methyl-1,2,3,4-tetrahydroquinoline-6-carboxamide.hydrochloride], the activity at 3 µM in assay [1] worked out at 138%.

Consider `CC(=O)N1c2ccc(-c3nc(=O)o[nH]3)cc2C(Nc2ccc(Cl)cc2)CC1C` (centres unmarked) [Compound 120, 1-acetyl-4-[(4-chlorophenyl)amino]-2-methyl-6-[1,2,4-oxadiazol-5(2H)-on-3-yl]-1,2,3,4-tetrahydroquinoline], for which the activity at 6 µM in assay [2] worked out at 188%. Turning to `CC(=O)N1c2ccc(F)cc2C(Nc2ccc(CC(=O)O)cc2)CC1C` (centres unmarked) [Compound 123, 1-acetyl-4-[(4-carboxymethylphenyl)amino]-6-fluoro-2-methyl-1,2,3,4-tetrahydroquinoline], the activity at 3 µM in assay [1] was found to be 142%.
